Reference: PMC7794939, “Discovery of Monoacylglycerol Lipase (MAGL) Inhibitors Based on a Pharmacophore-Guided Virtual Screening Study” (Molecules, 2020)

Legend:
Format in all cases: biochemical
[1] = target: T1, Human recombinant MAGL (Homo sapiens, UniProt Q99685); assay: MAGL enzyme inhibition assay (4-NPA substrate, absorbance 405 nm); conditions: 30 min, rt, pH 7.2
T1 construct: purchased Cayman Chemical (Ann Arbor, MI, USA)
T1 sequence (Q99685 1-303): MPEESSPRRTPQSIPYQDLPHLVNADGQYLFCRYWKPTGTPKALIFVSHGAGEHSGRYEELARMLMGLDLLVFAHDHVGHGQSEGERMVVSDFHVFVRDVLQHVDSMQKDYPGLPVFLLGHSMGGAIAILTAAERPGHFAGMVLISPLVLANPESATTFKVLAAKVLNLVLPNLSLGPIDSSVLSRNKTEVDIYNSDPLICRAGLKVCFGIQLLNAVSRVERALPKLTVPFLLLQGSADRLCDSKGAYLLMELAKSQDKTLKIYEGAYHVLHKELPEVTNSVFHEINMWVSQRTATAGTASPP
Protocol: Human recombinant MAGL and 4-nitrophenyl acetate substrate (4-NPA) were bought from Cayman Chemical (Ann Arbor, MI, USA). […] The IC50 values were produced in 96-well microtiter plates. The MAGL reaction was carried out at rt at a final volume of 200 µL in 10 mM Tris buffer, pH 7.2, containing 1 mM EDTA and 0.1 mg/mL BSA. […] The reaction was started by adding 40 µL of MAGL (11 ng/well) in such a way that the assay was linear over 30 min. […] Two more reactions were carried out: one reaction containing no compounds and the second one containing neither enzyme nor inhibitor.

[2] = target: T1, Human recombinant MAGL; assay: MAGL inhibition with or without the thiol-containing agent DTT
Protocol: (§1) Furthermore, with the aim of establishing whether the mechanism of inhibition was reversible or irreversible, the effects of preincubation on the inhibitory activity of compounds VS1 and VS2 were evaluated. In this assay, the compounds were preincubated with the enzyme for 0, 30 and 60 min before adding the substrate to start the enzymatic reaction. An irreversible inhibitor should show a higher potency after longer incubation times, whereas a reversible inhibitor should display a constant inhibition potency that is independent from the incubation time. […] Taken together, these experimental studies, aimed at better characterizing the mode of action of compounds VS1 and VS2, further supported the reliability of the binding mode predicted for the two ligands.
Human recombinant MAGL and 4-nitrophenyl acetate substrate (4-NPA) were bought from Cayman Chemical (Ann Arbor, MI, USA). The reversible compound 17b reported by Granchi et al. in 2016 was synthesized in our laboratory and used as reference compound [19]. Compound 3l was synthesized in our laboratory according to the procedure reported by Aida et al. and used as reference compound. The IC50 values were produced in 96-well microtiter plates. The MAGL reaction was carried out at rt at a final volume of 200 µL in 10 mM Tris buffer, pH 7.2, containing 1 mM EDTA and 0.1 mg/mL BSA. A total of 150 µL of 4-NPA 133.3 µM was added to 10 µL of DMSO containing the appropriate amount of compound. The reaction was started by adding 40 µL of MAGL (11 ng/well) in such a way that the assay was linear over 30 min. After the reaction had progressed for 30 min, absorbance values were measured by using a VictorX3 instrument (PerkinElmer, Waltham, MA, USA) at 405 nm. Two more reactions were carried out: one reaction containing no compounds and the second one containing neither enzyme nor inhibitor. To remove possible false positive results, a blank analysis was performed for each compound concentration and the final absorbance results were obtained detracting the absorbance produced by the presence of all the components except MAGL in the same conditions.

[3] = target: T1, Human recombinant MAGL; assay: MAGL inhibition after preincubation of compound with enzyme (reversibility); conditions: preincubated with the enzyme for 0, 30 and 60 min before adding the substrate
Protocol: as §1
Human recombinant MAGL and 4-nitrophenyl acetate substrate (4-NPA) were bought from Cayman Chemical (Ann Arbor, MI, USA). […] After the reaction had progressed for 30 min, absorbance values were measured by using a VictorX3 instrument (PerkinElmer, Waltham, MA, USA) at 405 nm. […] To remove possible false positive results, a blank analysis was performed for each compound concentration and the final absorbance results were obtained detracting the absorbance produced by the presence of all the components except MAGL in the same conditions.

[4] = assayed in the absence of DTT, read-out: IC50 in the absence of DTT
[5] = assayed in the presence of 10 µM DTT, read-out: IC50 in the presence of DTT

Row | SMILES | IC50 [1] | IC50 [2, 4] | IC50 [2, 5] | Effect of preincubation time on inhibitory potency (reversible or irreversible mechanism) [3]
1 | O=C(c1ccc(Cl)cc1)C1CCN(C(=O)c2cccc(O)c2)CC1 [Compound 17b, reference compound] | 0.9 ± 0.08 µM |  |  | 
2 | O=C(c1ccco1)N1CCN(C2=CC(=O)N(c3cccc(Cl)c3)C2=O)CC1 [VS2] | 48.9 ± 4.2 µM | 47.5 µM | 49.5 µM | did not show any significant increase in inhibitory potency at longer incubation times
3 | O=C(c1ccco1)N1CCN(C2CC(=O)N(c3cccc(Cl)c3)C2=O)CC1 (stereo not shown) [VS4] | 138 ± 11 µM |  |  | 
4 | O=C(Nc1nnc(C2CC(=O)N(c3ccccc3)C2)s1)c1cccc(Br)c1 (stereo not shown) [VS6] | > 200 µM |  |  | 

More lines, main results first:

Row | IC50 [1] | IC50 [2, 4] | IC50 [2, 5] | SMILES | Effect of preincubation time on inhibitory potency (reversible or irreversible mechanism) [3]
5 | 34.7 ± 2.4 µM | 35.4 µM | 34.1 µM | Cc1cc(=O)[nH]c(-c2ccc(NS(=O)(=O)c3ccc(F)cc3Cl)cc2)n1 [VS1] | did not show any significant increase in inhibitory potency at longer incubation times
6 | 79.4 ± 6.3 µM |  |  | CC(C)c1ccc(OCC(=O)Nc2ccc(-c3nc4ccccc4c(=O)o3)cc2)cc1 [VS3] | 
7 | > 200 µM |  |  | O=C1c2ccc(-c3nc4ccccc4c(=O)o3)cc2C(=O)N1Cc1ccc(Cl)cc1 [VS5] | 
